Test results from US20030129629A1, “Methods and compositions for the identification, assessment, prevention, and therapy of human cancers” (Millennium Pharmaceuticals, Inc., priority 2000, published 2003).
Counter-ions that a name gives are not always drawn.

System: 60 cancer cell lines (NCI 60 cancer cell line series)
Assay: NCI-DTP in vitro cancer screen, sulforhodamine B (SRB) growth inhibition, 48 hour exposure
Format: cell-based, human
Description: Cancer Cell Line Preparation. Sixty cancer cell lines were obtained from the National Cancer Institute Developmental Therapeutics Program (NCI-DTP). Procedures for growing cells and testing compounds have been described previously (Scudiero et al., Cancer Res. 1988, 48:4827-4833; Stinson et al., Anticancer Res.; Myers et al., Electrophoresis 1997, 18:647-653). Cells are plated on day 0 at a density individualized for each cell line so that they will generally be sub-confluent at the end of the assay period. On day 1, a compound is added in the format for a duplicate-well, 5-dose, ten-fold interval dose response study.
No-drug, no-cell and no-growth controls are included. On day 3 the cells are processed for staining with sulforhodamine B (SRB), which reflects the amount of cell mass present at the end of a 48 hour exposure to the test agent. From dose response curves based on the SRB data, various parameters can be determined. […] More precisely, the quantity used in the calculation to be described is the potency measure −log{GI50}.
Activity database (A). […] This subset of compounds was selected from the larger 23,000 compound database available from the DTP. The compounds were selected on the basis of their known mechanism of action and chemical structure. The average potency −log{GI50} was extracted from the comma-delimited text files available through the Web at http://www.nci.nih.gov/intra/lmp/jnwbio.html. Subsequently, these −log{GI50} values were inspected manually and classified as indicating either Low, Medium or High sensitivity to each compound.

For `CC[C@]1(O)C[C@H]2CN(CCc3c([nH]c4ccccc34)[C@@](C(=O)OC)(c3cc4c(cc3OC)N(C=O)[C@H]3[C@@](O)(C(=O)OC)[C@H](OC(C)=O)[C@]5(CC)C=CCN6CC[C@]43[C@@H]65)C2)C1` [Vincristine sulfate], the “classification of cell line as Low(1), Medium(2), High(3) sensitivity to compound” value (“classification of cell line” below) (Breast BT-549 CL5013) was 1, the “classification of cell line” value (Breast HS-578T CL5006) was 2 and the “classification of cell line” value (Breast MCF7(I) CL5001) was 2. For the same molecule, the “classification of cell line” value (Breast MCF7/ADRr CL5002) was 2, the “classification of cell line” value (Breast MDA-MB-231 CL5005) was 2 and the “classification of cell line” value (Breast MDA-MB-435 CL5011) was 2. The “classification of cell line” value (Breast MDA-N CL5012) was 2, the “classification of cell line” value (Breast T-47D CL5014) was 1 and the “classification of cell line” value (CNS SF-268 CL12014) was 2. For the same molecule, the “classification of cell line” value (CNS SF-295 CL12015) was 3, the “classification of cell line” value (CNS SF-539 CL12016) was 3 and the “classification of cell line” value (CNS SNB-19 CL12002) was 2. The “classification of cell line” value (CNS SNB-75(I) CL12005) was 2, the “classification of cell line” value (CNS U251(I) CL12009) was 2 and the “classification of cell line” value (Colon COLO-250 CL4010) was 2. The “classification of cell line” value (Colon HCC-2998 CL4002) was 2, the “classification of cell line” value (Colon HCT-15 CL4015) was 2 and the “classification of cell line” value (Colon HCT-116 CL4003) was 2. For the same molecule, the “classification of cell line” value (Colon HT29(I) CL4001) was 3, the “classification of cell line” value (Colon KM12 CL4017) was 3 and the “classification of cell line” value (Colon SW-620 CL4009) was 3. For the same molecule, the “classification of cell line” value (Leukemia CCRF-CEM(I) CL7003) was 3, the “classification of cell line” value (Leukemia HL-60(I) CL7008) was 3 and the “classification of cell line” value (Leukemia K562(I) CL7005) was 3. The “classification of cell line” value (Leukemia MOLT-4 CL7006) was 3, the “classification of cell line” value (Leukemia RPMI-8226(I) CL7010) was 3 and the “classification of cell line” value (Leukemia SR CL7019) was 3. The “classification of cell line” value (Melanoma LOX IMVI CL10001) was 3, the “classification of cell line” value (Melanoma M14 CL10014) was 2 and the “classification of cell line” value (Melanoma MALME-3M CL10002) was 2. The “classification of cell line” value (Melanoma SK-MEL-2 CL10005) was 2, the “classification of cell line” value (Melanoma SK-MEL-5 CL10007) was 3 and the “classification of cell line” value (Melanoma SK-MEL-28 CL10008) was 1. For the same molecule, the “classification of cell line” value (Melanoma UACC-62 CL10020) was 2, the “classification of cell line” value (Melanoma UACC-257 CL10021) was 2 and the “classification of cell line” value (NSCLC A549/ATCC CL1004) was 2. The “classification of cell line” value (NSCLC EKVX CL1008) was 1, the “classification of cell line” value (NSCLC HOP-62 CL1026) was 2 and the “classification of cell line” value (NSCLC HOP-92 CL1029) was 2. The “sensitivity classification Low(1)/Medium(2)/High(3)” value (NSCLC NCI-H23(I) CL1001) was 3, the “classification of cell line” value (NSCLC NCI-H226 CL1013) was 2 and the “sensitivity classification Low(1)/Medium(2)/High(3)” value (NSCLC NCI-H332M CL1017) was 2. For the same molecule, the “sensitivity classification Low(1)/Medium(2)/High(3)” value (NSCLC NCI-H460 CL1021) was 3, the “sensitivity classification Low(1)/Medium(2)/High(3)” value (NSCLC NCI-H522 CL1003) was 3 and the “sensitivity classification Low(1)/Medium(2)/High(3)” value (Ovarian IGROV1 CL6010) was 3. For the same molecule, the “sensitivity classification Low(1)/Medium(2)/High(3)” value (Ovarian OVCAR-3 CL6001) was 3, the “sensitivity classification Low(1)/Medium(2)/High(3)” value (Ovarian OVCAR-4 CL6002) was 2 and the “sensitivity classification Low(1)/Medium(2)/High(3)” value (Ovarian OVCAR-5 CL6003) was 1. The “sensitivity classification Low(1)/Medium(2)/High(3)” value (Ovarian OVCAR-8 CL6005) was 3, the “sensitivity classification Low(1)/Medium(2)/High(3)” value (Ovarian SK-OV-3 CL6011) was 2 and the “sensitivity classification Low(1)/Medium(2)/High(3)” value (Prostate DU-145 CL11003) was 2. The “sensitivity classification Low(1)/Medium(2)/High(3)” value (Prostate PC-3(I) CL11001) was 2, the “sensitivity classification Low(1)/Medium(2)/High(3)” value (Renal 786-0 CL9018) was 2 and the “sensitivity classification Low(1)/Medium(2)/High(3)” value (Renal A498 CL9013) was 3. For the same molecule, the “sensitivity classification Low(1)/Medium(2)/High(3)” value (Renal ACHN CL9023) was 2, the “sensitivity classification Low(1)/Medium(2)/High(3)” value (Renal CAKI-1 CL9015) was 2 and the “sensitivity classification Low(1)/Medium(2)/High(3)” value (Renal RXF-393 CL9016) was 2. The “sensitivity classification Low(1)/Medium(2)/High(3)” value (Renal SN12C CL9008) was 2, the “sensitivity classification Low(1)/Medium(2)/High(3)” value (Renal TK10 CL9024) was 1 and the “sensitivity classification Low(1)/Medium(2)/High(3)” value (Renal UO-31 CL9004) was 1.
